Experimental findings from article PMC5679667 (PLoS ONE, 2017) are described below.

The test deals with T1, ecAT3.10 (extracellular ATeam3.10) (Bacillus sp. PS3, UniProt P07678).
T1 construct: gene atpC; ATeam3.10 (epsilon subunit between CFP and YFP) with N-terminal IgK leader and C-terminal PDGFR transmembrane anchor; on surface of Neuro2A cells
Nature of the test: live-cell FRET/CFP ratio imaging. The test is classed as cell-based. Conditions: Neuro2A cells, continuous perfusion, pH 7.3, room temperature; printed error probably a misprint.

T1 sequence (P07678 whole entry): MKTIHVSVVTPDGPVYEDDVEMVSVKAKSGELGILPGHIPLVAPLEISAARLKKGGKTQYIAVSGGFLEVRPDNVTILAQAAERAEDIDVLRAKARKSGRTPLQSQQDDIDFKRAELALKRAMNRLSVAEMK

As to `Nc1ncnc2c1ncn2[C@@H]1O[C@H](COP(=O)(O)OP(=O)(O)O)[C@@H](O)[C@H]1O` [ADP], the “fold increase in ratio signal at 100 μM” value is recorded as 1.026 ± 1.005.
